Values of other authors in patent US6733789B1 (Biovail Laboratories, Inc., priority 1999, dated 2004).

peak plasma concentration (after a 10 mg dose, oral): 40 ng/mL
dependence of pharmacokinetic properties on age or dose (dose range 2.5-100 mg): not dependent on age or dose
excreted unchanged in the urine (in vivo): About 50%
mean plasma half life (in vivo): 10 to 12 h
pre-systemic metabolism (oral administration): below 10%
time to peak plasma concentrations (oral administration): three
biotransformed in the liver (subsequent elimination of inactive metabolites via the kidneys): 50%
Compound: CC(C)NCC(O)COc1ccc(COCCOC(C)C)cc1 (stereo not drawn) [bisoprolol]
effect of food on peak plasma concentrations (concomitant food intake or fasting): appear not to be affected by concomitant food intake or fasting
adverse effects (spontaneously mentioned by patients treated with bisoprolol): Dizziness, headache and tiredness are the most frequent adverse effects
